This experiment deals with Bovine cardiac myofibrils. Kind of experiment: In vitro model of dose-dependent myofibril ATPase modulation (AC1.4, pyruvate kinase/lactate dehydrogenase-coupled ATPase assay at pCa25). In kind it is biochemical. Particulars: concentration at which ATPase activity was 1.4-fold higher than the bottom of the dose curve, mean of a minimum of two independent tests. Put shortly:
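Bovine cardiac myofibrils, detergent-treated; 0.25-1.0 mg/ml. Buffer: K-PIPES 12 mM, MgCl2 2 mM, DTT 1 mM, BSA 0.1 mg/ml, pH 6.80, 22° C; Ca2+ set by EGTA/CaCl2. ATP 1 mM, NADH/PEP-coupled, A340. 4-parameter fit; n≥2.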
The compound `CC[C@H](NC(=O)[C@H]1CCCN1C(=O)c1cccc(S(=O)(=O)N2CC(C#N)C2)c1)c1ccc(C(F)(F)F)cc1F` [Example 204, 1-(3-((3-cyano-1-azetidinyl)sulfonyl)benzoyl)-N-((1S)-1-(2-fluoro-4-(trifluoromethyl)phenyl)propyl)-D-prolinamide] came in with an AC1.4 of 0.4305 µM. For the compound `O=C(N[C@@H](c1ccc(C(F)(F)F)cc1F)C1CC1)[C@H]1CCCN1C(=O)c1cccc(-c2ccsc2)c1` [Example 726, N-((R)-cyclopropyl(2-fluoro-4-(trifluoromethyl)phenyl)methyl)-1-(3-(3-thiophenyl)benzoyl)-D-prolinamide], the AC1.4 turned out to be 6.547 µM. For `NC(=O)C1(c2cccc(C(=O)N3CCC[C@@H]3C(=O)N[C@@H](c3ccc(C(F)(F)F)cc3F)C3CC3)c2)CC1` [Example 533, 1-(3-(1-carbamoylcyclopropyl)benzoyl)-N-((R)-cyclopropyl(2-fluoro-4-(trifluoromethyl)phenyl)methyl)-D-prolinamide] the value was 2.5883 µM; for `CC[C@H](NC(=O)[C@H]1CCCN1C(=O)c1cccc(S(=O)(=O)N2CC(C#N)C2)c1)c1cc(F)cc(F)c1` [Example 165, 1-(3-((3-cyano-1-azetidinyl)sulfonyl)benzoyl)-N-((1S)-1-(3,5-difluorophenyl)propyl)-D-prolinamide], 0.2792 µM; for `O=C1NCCCCC1NS(=O)(=O)N1CCC[C@H](C(=O)N2CCC[C@@H]2C(=O)NCc2ccc(C(F)(F)F)cc2)C1` (stereo partly drawn) [Example 473, (2R)-1-((3S)-1-(N-(2-oxoazepan-3-yl)sulfamoyl)piperidine-3-carbonyl)-N-(4-(trifluoromethyl)benzyl)pyrrolidine-2-carboxamide], 2.035 µM. Then `C[C@@H](NC(=O)[C@H]1CCCN1C(=O)[C@@H]1CN(S(=O)(=O)N2CC(C#N)C2)CCN1)c1ccc(Cl)cc1` [Example 511, N-((1R)-1-(4-chlorophenyl)ethyl)-1-(((2S)-4-((3-cyano-1-azetidinyl)sulfonyl)-2-piperazinyl)carbonyl)-D-prolinamide], with 2.4195 µM; and `N#CC1CN(S(=O)(=O)N2CCC[C@H](C(=O)N3CCC[C@@H]3C(=O)NCc3ccc(CF)cc3)C2)C1` [Example 413, 1-(((3S)-1-((3-cyano-1-azetidinyl)sulfonyl)-3-piperidinyl)carbonyl)-N-(4-(fluoromethyl)benzyl)-D-prolinamide], with 1.511 µM; and `CS(=O)(=O)c1cc(C(=O)N2[C@@H](C(=O)N[C@@H](c3ccc(C(F)(F)F)c(F)c3)C3CC3)C[C@H]3C[C@H]32)ccn1` [Example 665, (1R,3R,5R)-N-((R)-cyclopropyl(3-fluoro-4-(trifluoromethyl)phenyl)methyl)-2-((2-(methylsulfonyl)-4-pyridinyl)carbonyl)-2-azabicyclo[3.1.0]hexane-3-carboxamide], with 4.554 µM. For `N#CC1CN(S(=O)(=O)c2cccc(C(=O)N3CCC[C@@H]3C(=O)NCc3ccc(Cl)nc3)c2)C1` [Example 260, N-((6-chloro-3-pyridinyl)methyl)-1-((3-((3-cyano-1-azetidinyl)sulfonyl)phenyl)carbonyl)-D-prolinamide] the value was 0.639 µM; for `O=C(N[C@@H](c1ccc(C(F)(F)F)cc1F)C1CC1)[C@H]1CCCN1C(=O)c1cccc(S(=O)(=O)CC(F)(F)F)c1` [Example 281, N-((R)-cyclopropyl(2-fluoro-4-(trifluoromethyl)phenyl)methyl)-1-(3-((2,2,2-trifluoroethyl)sulfonyl)benzoyl)-D-prolinamide], 0.7104 µM; for `CS(=O)(=O)c1cccc(C(=O)N2CCCC[C@@H]2C(=O)N[C@@H](c2ccc(C(F)F)cc2F)C2CC2)c1` [Example 578, (2R)-N-((R)-cyclopropyl(4-(difluoromethyl)-2-fluorophenyl)methyl)-1-(3-(methylsulfonyl)benzoyl)-2-piperidinecarboxamide], 3.3475 µM. Regarding `CC1(C)CN(S(=O)(=O)c2cccc(C(=O)N3CCC[C@@H]3C(=O)NCc3ccc(C(F)(F)F)cc3)c2)C1` [Example 234, 1-((3-((3,3-dimethyl-1-azetidinyl)sulfonyl)phenyl)carbonyl)-N-(4-(trifluoromethyl)benzyl)-D-prolinamide], the AC1.4 was determined as 0.5321 µM. Take `CS(=O)(=O)c1cncc(C(=O)N2CCC(C(F)(F)F)C2C(=O)N[C@@H](c2cc(F)c(C(F)(F)F)cc2F)C2CC2)c1` (stereo partly drawn) [Example 241, N-((R)-cyclopropyl(2,5-difluoro-4-(trifluoromethyl)phenyl)methyl)-1-(5-(methylsulfonyl)nicotinoyl)-3-(trifluoromethyl)pyrrolidine-2-carboxamide]: the AC1.4 was determined as 0.5692 µM. In turn, `O=C(N[C@@H](c1cc(F)c(C(F)(F)F)cc1F)C1CC1)[C@H]1C[C@H]2C[C@H]2N1C(=O)c1cc(C2CC2)ccn1` [Example 593, (1R,3R,5R)-N-((R)-cyclopropyl(2,5-difluoro-4-(trifluoromethyl)phenyl)methyl)-2-((4-cyclopropyl-2-pyridinyl)carbonyl)-2-azabicyclo[3.1.0]hexane-3-carboxamide] showed an AC1.4 of 3.49 µM. As for `CS(=O)(=O)c1ccc(C(=O)N2CCC[C@@H]2C(=O)N[C@@H](c2cc(F)c(Cl)cc2F)C2CC2)cn1` [Example 215, N-((R)-(4-chloro-2,5-difluorophenyl)(cyclopropyl)methyl)-1-((6-(methylsulfonyl)-3-pyridinyl)carbonyl)-D-prolinamide], the AC1.4 was determined as 0.4666 µM.

`CC(C)(C)c1cc(C(=O)N2[C@@H](C(=O)N[C@@H](c3ccc(Cl)cc3F)C3COC3)C[C@H]3C[C@H]32)ccn1` [Example 738, (1R,3R,5R)-N-((R)-(4-chloro-2-fluorophenyl)(3-oxetanyl)methyl)-2-((2-(2-methyl-2-propanyl)-4-pyridinyl)carbonyl)-2-azabicyclo[3.1.0]hexane-3-carboxamide]: the AC1.4 turned out to be 7.0545 µM. For `CC(O)(c1cccc(C(=O)N2CCCC[C@@H]2C(=O)N[C@@H](c2ccc(C(F)(F)F)cc2F)C2CC2)c1)C(F)(F)F` (stereo partly drawn) [Example 208, (2R)-N-((R)-cyclopropyl(2-fluoro-4-(trifluoromethyl)phenyl)methyl)-1-(3-(-1,1,1-trifluoro-2-hydroxy-2-propanyl)benzoyl)-2-piperidinecarboxamide] the value was 0.4457 µM; for `CS(=O)(=O)c1cc(C(=O)N2[C@@H](C(=O)N[C@@H](c3ccc(Cl)c(F)c3)C3CC3)C[C@H]3C[C@H]32)ccn1` [Example 795, (1R,3R,5R)-N-((R)-(4-chloro-3-fluorophenyl)(cyclopropyl)methyl)-2-((2-(methylsulfonyl)-4-pyridinyl)carbonyl)-2-azabicyclo[3.1.0]hexane-3-carboxamide], 9.3255 µM. As to `Cc1cccc(CNC(=O)[C@H]2CCCN2C(=O)[C@H]2CCCN(S(=O)(=O)N3CC(C#N)C3)C2)c1F` [Example 606, 1-(((3S)-1-((3-cyano-1-azetidinyl)sulfonyl)-3-piperidinyl)carbonyl)-N-(2-fluoro-3-methylbenzyl)-D-prolinamide], the AC1.4 is 3.696 µM. Turning to `O=C(O[C@@H]1CC(C(=O)N[C@@H](c2cc(F)c(Cl)cc2F)C2COC2)N(C(=O)c2ccnc(C(F)F)c2)C1)c1ccnc(C(F)F)c1` (stereo partly drawn) [Example 476, (3R,5R)-5-(((R)-(4-chloro-2,5-difluorophenyl)(3-oxetanyl)methyl)carbamoyl)-1-((2-(difluoromethyl)-4-pyridinyl)carbonyl)-3-pyrrolidinyl2-(difluoromethyl)-4-pyridinecarboxylate], the AC1.4 was found to be 2.071 µM. `O=C(N[C@@H](c1ccc(C(F)(F)F)cc1F)C1CC1)[C@H]1C[C@H](F)CN1C(=O)c1cccc(C2(F)COC2)c1` [Example 599, (4S)-N-((R)-cyclopropyl(2-fluoro-4-(trifluoromethyl)phenyl)methyl)-4-fluoro-1-(3-(3-fluoro-3-oxetanyl)benzoyl)-D-prolinamide] came in with an AC1.4 of 3.5615 µM. Then `Cc1cccc(CNC(=O)[C@H]2CCCN2C(=O)[C@H]2CCCN(S(=O)(=O)N3CC(C#N)C3)C2)c1` [Example 643, 1-(((3S)-1-((3-cyano-1-azetidinyl)sulfonyl)-3-piperidinyl)carbonyl)-N-(3-methylbenzyl)-D-prolinamide], with 4.3125 µM. For `O=C(N[C@@H](c1ccc(C(F)(F)F)cc1F)C1CC1)[C@H]1CCCN1C(=O)c1cccc(C2(F)CN(S(=O)(=O)C3COC3)C2)c1` [Example 451, N-((R)-cyclopropyl(2-fluoro-4-(trifluoromethyl)phenyl)methyl)-1-(3-(3-fluoro-1-(3-oxetanylsulfonyl)-3-azetidinyl)benzoyl)-D-prolinamide] the value was 1.8635 µM; for `CS(=O)(=O)c1ccc(C(=O)N2[C@@H](C(=O)N[C@@H](c3ccc(C(F)(F)F)cc3F)C3CC3)C[C@H]3C[C@H]32)cn1` [Example 490, (1R,3R,5R)-N-((R)-cyclopropyl(2-fluoro-4-(trifluoromethyl)phenyl)methyl)-2-((6-(methylsulfonyl)-3-pyridinyl)carbonyl)-2-azabicyclo[3.1.0]hexane-3-carboxamide], 2.1625 µM; for `COc1ccc(CNC(=O)[C@H]2CCCN2C(=O)[C@H]2CCCN(S(=O)(=O)N3CC(C#N)C3)C2)cc1Cl` [Example 591, N-(3-chloro-4-methoxybenzyl)-1-(((3S)-1-((3-cyano-1-azetidinyl)sulfonyl)-3-piperidinyl)carbonyl)-D-prolinamide], 3.476 µM. Then `CS(=O)(=O)c1cccc(C(=O)N2[C@@H](C(=O)NC(c3ccc(C(F)(F)F)cc3F)C3CNC(=O)C3)C[C@H]3C[C@H]32)c1` (stereo partly drawn) [Example 244, (1R,3R,5R)-N-((2-fluoro-4-(trifluoromethyl)phenyl)(5-oxopyrrolidin-3-yl)methyl)-2-(3-(methylsulfonyl)benzoyl)-2-azabicyclo[3.1.0]hexane-3-carboxamide], with 0.5793 µM.
